Source: patent US20230115176A1 (Ra Pharmaceuticals, Inc., priority 2019, published 2023)

target: T1, Human C5 (Homo sapiens, UniProt P01031); test: Red blood cell (RBC) hemolysis assay, luminescent (Example 13, Table 22); format: cell-based; conditions: sheep EA cells, […] C5-depleted human serum, 0.5 nM human C5, 1 hour 37° C., luminescence; also: 1.5% C5-depleted human serum
T1 construct: purchased Complement Technology
Excerpt: Compound CU0136 is a racemic mixture of Compound CU0186 and CU0187. Numbers in parenthesis following compound numbers indicate alternate enantiomers (as distinguished by retention time during chromatographical separation).

T1 sequence (P01031 19-1676): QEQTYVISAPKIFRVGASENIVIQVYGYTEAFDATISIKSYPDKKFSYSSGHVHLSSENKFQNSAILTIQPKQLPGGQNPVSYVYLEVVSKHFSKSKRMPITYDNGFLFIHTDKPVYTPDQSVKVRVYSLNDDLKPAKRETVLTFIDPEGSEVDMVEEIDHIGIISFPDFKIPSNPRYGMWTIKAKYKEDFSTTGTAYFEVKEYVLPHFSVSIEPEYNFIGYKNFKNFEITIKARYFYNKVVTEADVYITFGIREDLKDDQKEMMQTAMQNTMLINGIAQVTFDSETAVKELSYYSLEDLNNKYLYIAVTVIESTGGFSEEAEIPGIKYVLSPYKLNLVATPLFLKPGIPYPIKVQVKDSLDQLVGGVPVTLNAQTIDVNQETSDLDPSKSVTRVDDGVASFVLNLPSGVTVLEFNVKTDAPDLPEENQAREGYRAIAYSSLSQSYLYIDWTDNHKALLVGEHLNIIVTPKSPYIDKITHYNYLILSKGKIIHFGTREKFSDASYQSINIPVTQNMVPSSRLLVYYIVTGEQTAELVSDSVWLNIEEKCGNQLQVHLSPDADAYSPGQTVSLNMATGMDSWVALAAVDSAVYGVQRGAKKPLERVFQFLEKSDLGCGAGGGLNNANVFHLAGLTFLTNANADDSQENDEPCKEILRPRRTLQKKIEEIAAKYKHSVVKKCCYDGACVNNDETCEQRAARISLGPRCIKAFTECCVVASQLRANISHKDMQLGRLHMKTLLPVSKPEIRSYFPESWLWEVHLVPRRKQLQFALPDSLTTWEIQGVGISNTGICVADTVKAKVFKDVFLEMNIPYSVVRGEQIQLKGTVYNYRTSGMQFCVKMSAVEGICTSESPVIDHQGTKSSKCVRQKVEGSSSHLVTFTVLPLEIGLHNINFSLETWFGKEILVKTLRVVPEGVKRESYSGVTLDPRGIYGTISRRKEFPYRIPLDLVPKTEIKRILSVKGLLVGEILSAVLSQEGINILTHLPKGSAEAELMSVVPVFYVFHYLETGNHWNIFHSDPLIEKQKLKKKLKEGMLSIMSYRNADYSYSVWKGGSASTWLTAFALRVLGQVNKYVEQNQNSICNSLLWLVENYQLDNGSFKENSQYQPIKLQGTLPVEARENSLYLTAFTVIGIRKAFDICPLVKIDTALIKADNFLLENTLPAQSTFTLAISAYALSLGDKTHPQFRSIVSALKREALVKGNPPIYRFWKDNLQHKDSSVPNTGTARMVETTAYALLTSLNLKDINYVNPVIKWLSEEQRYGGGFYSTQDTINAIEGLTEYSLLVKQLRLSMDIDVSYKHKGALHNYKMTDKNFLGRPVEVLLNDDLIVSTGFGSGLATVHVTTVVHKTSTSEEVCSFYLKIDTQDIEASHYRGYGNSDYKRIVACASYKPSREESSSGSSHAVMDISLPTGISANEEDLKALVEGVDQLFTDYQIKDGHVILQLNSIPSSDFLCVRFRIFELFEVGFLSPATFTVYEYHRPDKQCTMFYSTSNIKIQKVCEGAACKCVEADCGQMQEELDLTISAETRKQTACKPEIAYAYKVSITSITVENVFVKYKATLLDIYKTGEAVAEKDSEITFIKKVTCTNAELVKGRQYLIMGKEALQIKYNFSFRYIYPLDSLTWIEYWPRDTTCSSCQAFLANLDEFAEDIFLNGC

Row | Structure (SMILES) | IC50
1 | CCCCCOc1cc(N2CCCN(Cc3cc(OC)cc(-c4cnn(C5CCN(C)CC5)c4)c3)C2=O)ccc1OC [CU0158] | 0.0278 µM
2 | COc1ccc(F)cc1CN1CCCN(c2ccc(OC)c(OCCCC(F)(F)C(F)(F)F)c2)C1=O [CU0195] | 0.049 µM
3 | CCCCCOc1cc(N2CCCN(Cc3ccc(CC(=O)NC4CCN(C(C)C)CC4)cc3Cl)C2=O)ccc1OC [CU0135] | 0.0145 µM
4 | CCCCCOc1cc(N2CCCN(Cc3ccc(CN4CCOCC4)cc3OC)C2=O)ccc1OC [CU0172] | 0.0373 µM
5 | C/C=C\CCCOc1cc(N2CCCN(Cc3cc(F)ccc3OC)C2=O)ccc1OC [CU0225] | 0.0291 µM
6 | CCCCCOc1cc(N2CCCN(Cc3ccc(CNC(=O)C4CN(C)C4)cc3OC)C2=O)ccc1OC [CU0191] | 0.0879 µM
7 | CCCCCOc1cc(N2CCCN(Cc3ccc(CCOC(=O)N(C)C)cc3OC)C2=O)ccc1OC [CU0204] | 0.0216 µM
8 | CCCCCOc1cc(N2CCCN(Cc3ccc(C)c4c3ccn4CC(=O)N(C)C)C2=O)ccc1OC [CU0229] | 0.0889 µM
9 | CCCCCOc1cc(N2CCCN(Cc3ccc(CC(=O)N(C)C)cc3OC)C2=O)ccc1C1CC1 [CU0113] | 0.0548 µM
10 | COc1ccc(N2CCCN(Cc3ccnc4c3ccn4CC(=O)N(C)C)C2=O)cc1OCCC1CCCC1 [CU0259] | 0.075 µM
11 | COc1ccc(F)cc1CN1CCCN(c2ccc(OC)c(OCc3ccccc3)c2)C1=O [CU0164] | 0.592 µM
12 | CCCCCOc1cc(N2CCCN(Cc3ccc(CC(=O)NC4CCN(C(C)=O)C4)cc3Cl)C2=O)ccc1OC (centres unmarked) [CU0134] | 0.0161 µM
13 | COc1ccc(F)cc1CN1CCCN(c2ccc(OC)c(OCc3cccc(OC(F)(F)F)c3)c2)C1=O [CU0221] | 0.741 µM
14 | CCCCCOc1cc(N2CCCN(Cc3ccc(CCOC(=O)N4CCCC4)cc3OC)C2=O)ccc1OC [CU0138] | 0.0554 µM
15 | CCCCCOc1cc(N2CCCN(Cc3ccc(Cc4nnn[nH]4)cc3OC)C2=O)ccc1OC [CU0209] | 0.0552 µM
16 | CCCCCOc1cc(N2CCCN(Cc3ccnc4c3ccn4CC(=O)N3CCCOCC3)C2=O)ccc1OC [CU0228] | 0.0218 µM

Row | Structure (SMILES) | IC50
17 | CCCCCOc1cc(N2CCN(Cc3ccnc4c3ccn4CC(=O)N3CCOC(COC)C3)C2=O)ccc1OC (centres unmarked) [CU0047] | 3.14 µM
18 | COc1ccc(F)cc1CN1CCCN(c2ccc(OC)c(OCc3ccccc3C)c2)C1=O [CU0182] | 0.936 µM
19 | COc1ccc(N2CCCCN(Cc3ccnc4c3ccn4CC(=O)N(C)C)C2=O)cc1OCCCC(C)C [CU0038] | 0.267 µM
20 | CCC#CCOc1cc(N2CCCN(Cc3cc(F)ccc3OC)C2=O)ccc1OC [CU0169] | 0.0824 µM
21 | CCCCCOc1cc(N2CCCN(Cc3cccc(N4CCC(C(C)(C)O)C4)c3F)C2=O)ccc1OC (centres unmarked) [CU0131] | 0.151 µM
22 | CCCCCOc1cc(N2CCCN(Cc3ccnc4c3ccn4CC3=NCCN3C)C2=O)ccc1OC [CU0251] | 0.034 µM
23 | CCCCCOc1cc(N2CCCN(Cc3ccc(Br)cc3OC)C2=O)ccc1OC [CU0153] | 0.233 µM
24 | CCCCCOc1cc(N2CCCN(Cc3ccnc4c3ccn4CC(=O)N3CCCOCC3)C2=O)ccc1OC [CU0053] | 0.0233 µM
25 | CCCCCOc1cc(N2CCCN(Cc3ccc(CCOC(C)C)cc3OC)C2=O)ccc1OC [CU0203] | 0.03 µM
26 | COc1ccc(N2CCCN(Cc3ccnc4c3ccn4CC(=O)N(C)C)C2=O)cc1OCC[C@@H]1C[C@@H]2CC[C@H]1C2 [CU0253] | 0.0419 µM
27 | CCCCCOc1cc(N2CCCN(Cc3ccnc4c3ccn4CC3CCCO3)C2=O)ccc1OC (centres unmarked) [CU0248] | 0.101 µM
28 | CC/C=C\COc1cc(N2CCCN(Cc3cc(F)ccc3OC)C2=O)ccc1OC [CU0194] | 0.0946 µM
29 | CCCCCOc1cc(N2CCCN(Cc3cc(C)cc4c3ccn4CC(=O)N(C)C)C2=O)ccc1OC [CU0236] | 0.203 µM
30 | CCCCCOc1cc(N2CCCN(Cc3ccc(C(O)c4nccn4C)cc3OC)C2=O)ccc1OC (centres unmarked) [CU0200] | 0.0089 µM
31 | COc1ccc(F)cc1CN1CCCN(c2ccc(OC)c(OCCC3CCCC3)c2)C1=O [CU0185] | 0.183 µM
32 | CCCCCOc1cc(N2CCCN(Cc3cccc(N4CCN(C5COC5)CC4)c3F)C2=O)ccc1OC [CU0130] | 0.147 µM
